Test results from patent US20160244411A1, “TAU IMAGING PROBE” (CLINO LTD., priority 2013, published 2016).
Read-outs that look alike come from different tables or passages of the source.

How the values were obtained:
[1] = target: AD brain tissue homogenates (Homo sapiens, UniProt P10636); assay: Competitive binding test using [3H]THK-5117 as radio ligand with AD brain tissue homogenates; settings: 2 nM [3H]THK-5117, 100 μg homogenate, 3 hours room temperature
Protocol: Binding Experiment (1) with AD Brain Tissue Homogenates Competitive Binding Test Using [^3H]THK-5117 as Radio Ligand
PBS (0.1% BSA) was used as an assay buffer, and the concentration of TI-IK-5105S or THK-5105R was adjusted with 2 nM [^3H] THK-5117 to 10^−5 to 10^−10 M in a reaction system (200 μL) containing 100 μg of the homogenates, and the competitive tests were then carried out. A nonspecific binding was measured with 2 μM of THK-5117. After incubation at room temperature for 3 hours, a glass filter plate was used to separate [^3H]THK-5117 bound to the homogenates and unbound [^3H] THK-5117, and the filter plate was washed, and then to the separated filter was added liquid scintillation cocktail, and the bound radioactivity was measured on a liquid scintillation counter. The data was analyzed by analysis software GraphPad Prism (Ver. 5). The competitive tests were carried out similarly on THK-5117S, THK-5117R, THK-5151S, and THK-5151R.

amyloid β (Aβ) = assay: Tissue binding test with 10 AD homogenate samples, correlation with Aβ concentration; set-up: species or system human; settings: 1 nM probe, 100 μg tissue, 1 hour incubation
Protocol: (§1) Binding Experiment (2) with AD Brain Tissue Homogenates Organization Binding Evaluation Experiment of [^18F]THK-5105S
(§2) According to the above-mentioned assay buffer, nonspecific binding measurement, and filter separation operation, using 10 kinds of AD homogenate samples each having different tau concentration and amyloid β (Aβ) concentration, the reaction system was adjusted such that the tissue concentration was made 100 μg and [^18F]THK-5105S concentration was made 1 nM, and the binding test (1 hour incubation) was carried out in the reaction system.
(§3) As comparative example, the binding test was carried out also on [^18F]THK-5105R according to the similar method. The tau concentration or Aβ concentration was plotted on horizontal axis […], and the bound amount of [^18F]THK-5105S and [^18F]THK-5105R was plotted on vertical axis, and the correlation thereof was evaluated.
(§4) This means that when imaging, [^18F]THK-5105S can be detected the change of the tau concentration more sensitively.

[2] = Dynamic evaluation of normal mouse brain by small animal PET; assay type: in vivo, ICR mouse
Protocol: For experiments in small animal PET (evaluation of its brain delivery), Polysorbate 80 was added to the ethanol-eluted fraction, from which the ethanol was removed using an evaporator. The [^18F] THK-5105S containing radioactive residue within the flask was dissolved in physiological saline and the solution prepared was used as a solution for injection.
In this experiment, […] was administered intravenously via tail to ICR mouse (male 6 to 7 weeks old) under isoflurane anesthesia (1.5%), and the time-change of radioactivity distribution in brain was measured on Clairvivopet/CT (manufactured by Shimadzu Corporation, Kyoto). The emission scan was started simultaneously with the administration of the probe, and measured in 3D list mode for 120 min. After imaging, 35 frames (10×60 s, 10×120 s, […]) were reconstructed, and a region of interest was set in the brain, and quantified as SUV, and a time-activity curve (TAC) was created, and the Dynamism of the both probes were compared.
THK-5105R. In order to compare the disappearance change, the peak values of the TAC for both probes were converted into 100%, and the TAC was then shown as FIG. 7B. As evident from the TACs, [^18F]THK-51055 has larger ratio of disappearance per hour than [^18F]THK-5105R, that is, has more rapid rate of disappearance.
THK-5105R, and can therefore detect tau lesion with more excellent selectivity.

tau = assay: Tissue binding test with 10 AD homogenate samples, correlation with tau concentration; set-up: species or system human; settings: 1 nM probe, 100 μg tissue, 1 hour incubation, in comparison with [18F]THK-5105R
Protocol: as §1, §2, §3, §4

tau lesion region = assay: Autoradiography of hippocampus sections of an Alzheimer's disease patient; assay type: binding, human; settings: AD hippocampus section, about 400 μCi/ml, in comparison with the corresponding R-form
Protocol: A brain specimen in hippocampus of the patient which was definitively-diagnosed as Alzheimer's disease pathologically was used. A paraffin-embedded brain tissue was sliced by 6 μm or 8 μm thick, and stretched on a glass slide, and dried. The paraffin brain sections were deparaffinized by washing sequentially with xylene 10 min.×2, 100% ethanol 5 min.×2, 90% ethanol 5 min., and flowing water 10 min. After deparaffinization, the sections were immersed in PBS. Each of about 400 μCi/ml of [^18F]THK-5105S and [^18F]THK-5105R was added dropwise to the sections, and the sections were allowed to a reaction at room temperature for 10 min. Thereafter, the sections were immersed in distilled water for 2 min., and successively, shaked lightly in 50% EtOH for 2 min., and thereafter immersed in distilled water for 2 min. again, and dried on paraffin stretching plate. Then, the sections were contacted with imaging plate, and allowed to stand overnight, and on next day, the imaging was read on BAS5000 (manufactured by FUJIFILM Holdings Corporation).
The autoradiography experiments were also carried out similarly on [^18F]THK-5151S and [^18F]THK-5151R.
THK-5105R and [^18F] THK-5151R in tau lesion region, which means that they binds more strongly to tau pathology.

[3] = tested on: AD hippocampus tissue homogenate (tau lesion); assay: Saturation binding experiment with AD hippocampus tissue homogenate; set-up: species or system human; settings: 0.1 to 100 nM
Protocol: Further, according to the above-mentioned assay buffer, nonspecific binding measurement, and filter separation operation, each saturation binding experiment of [^18F]THK-5151S and [^18F]THK-5151R was carried out with AD hippocampus tissue homogenate. Zero point one (0.1) to 100 nM of each tested substance was incubated with hippocampus homogenate, and then filtered with a filter, washed, and then measured radioactivity supplemented by the filter, and thereby calculated as total binding and nonspecific binding at each concentration. The data was analyzed with GraphPad Prism (Ver. 5) to calculate binding dissociation constants Kd and Bmax. The binding curve of the results and the analysis results are shown as FIG. 6c.

[4] = Dynamic evaluation of normal mouse brain by biodistribution method; assay type: in vivo, ICR mouse
Protocol: A saline comprising [^18F]THK-5105S or [18F]THK-5105R was administered intravenously via tail to ICR mouse (male 6 to 7 weeks old), and the time change of radioactivity distribution in brain was measured on Clairvivopet/CT (manufactured by Shimadzu Corporation, Kyoto). The brain dynamics was evaluated by the time-change of the accumulation rate of radioactivity in brain tissue after 2 min., 10 min., 30 min., 60 min., and 120 min.
The accumulation rate of radioactivity was calculated as the ratio of radioactivity per weight of evaluated tissue against total administered radioactivity (% Injected Dose/g of tissue; % ID/g). The measurement of the radioactivity was carried out with Gamma counter (Accuflex γ7000, measured by Hitachi-Aloka Medical, Tokyo). The experimental procedure was as follows. After administering the label compound intravenously via tail at 2 min., 10 min., 30 min., 60 min., and 120 min., cervical dislocation of mouse was performed under ether anesthesia, and organ tissues were extracted. The radioactivity and the weight of each sample were measured, and the data was analyzed to calculate % ID/g. Also, as the evaluation index for the disappearance from the brain, the divided value of the accumulation rate at 2 min. after administration by the accumulation rate at 60 min. after administration (2 min./60 min. ratio) was calculated.

[5] = read-out: Ki Entorhinal cortex 601 pmol/g tissue
[6] = read-out: Ki Temporal lobe cortex (607.6 pmol/g tissue)
[7] = intravenous via tail, in comparison with [18F]THK-5105R

Sequence of AD brain tissue homogenates (P10636 623-695 limits assumed): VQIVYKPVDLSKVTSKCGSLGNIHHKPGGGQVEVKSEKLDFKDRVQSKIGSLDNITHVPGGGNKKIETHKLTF

CN(C)c1ccc(-c2ccc3cc(OC[C@@H](O)CF)ccc3n2)cc1 [THK-5105R, reference compound]
Ki [1, 5]: 27.4 nM | Ki [1, 6]: 16.3 nM

CN(C)c1ccc(-c2ccc3cc(OC[C@H](O)CF)ccc3n2)cc1 [THK-5105S]
Ki [1, 5]: 4.6 nM | Ki [1, 6]: 2.6 nM

CNc1ccc(-c2ccc3cc(OCC(O)CF)ccc3n2)cc1 (centres unmarked) [THK-5117R, reference compound]
Ki [1, 6]: 25.7 ± 10.7 nM

CNc1ccc(-c2ccc3cc(OC[C@H](O)CF)ccc3n2)cc1 [THK-5117S]
Ki [1, 6]: 9.4 ± 4.8 nM

CNc1ccc(-c2ccc3cc(OC[C@H](O)CF)ccc3n2)cn1 [THK-5151S]
Ki [1, 6]: 7.2 ± 1.27 nM

CN(C)c1ccc(-c2ccc3cc(OCC(O)C[18F])ccc3n2)cc1 (centres unmarked) [[^18F]THK-5105R, reference compound]
correlation of tissue bound amount with the Aβ concentration (amyloid β (Aβ)): could not be found to have a correlation with the Aβ concentration | SUV Ratio 5 min./30 min. ([2]; brain, intravenous via tail): 1.92 ± 0.3 | SUV Ratio 5 min./60 min. ([2]; brain, intravenous via tail): 3.67 ± 0.9 | SUV Ratio 5 min./120 min. ([2]; brain, intravenous via tail): 7.75 ± 1.6

CN(C)c1ccc(-c2ccc3cc(OC[C@H](O)CF)ccc3n2)cc1 [[^18F]THK-5105S]
correlation of tissue bound amount with the Aβ concentration (amyloid β (Aβ)): could not be found to have a correlation with the Aβ concentration | correlation of tissue bound amount with the tau concentration (tau): extremely higher correlation with the tau concentration | tissue bound amount (tau): higher bound amount | SUV ratios 5 min./30 min., 5 min./60 min., 5 min./120 min. compared between probes ([2]; brain, in comparison with [18F]THK-5105R): significantly higher value | SUV Ratio 5 min./30 min. ([2]; brain, intravenous via tail): 2.70 ± 0.1 | SUV Ratio 5 min./60 min. ([2]; brain, intravenous via tail): 6.27 ± 0.6 | SUV Ratio 5 min./120 min. ([2]; brain, intravenous via tail): 19.2 ± 4.4 | disappearance from normal brain tissue (time-activity curve) [2, 7]: disappeared more rapidly from normal brain tissue | retention into the normal brain tissue [2, 7]: lower retention into the normal brain tissue

CN(C)c1ccc(-c2ccc3cc(OC[C@H](O)C[18F])ccc3n2)cc1 [[^18F]THK-5105S]
autoradiography imaging signal in tau lesion region (tau lesion region): stronger imaging signal

CNc1ccc(-c2ccc3cc(OC[C@H](O)CF)ccc3n2)cn1 [[^18F]THK-5151S]
autoradiography imaging signal in tau lesion region (tau lesion region): stronger imaging signal | Bmax/Kd value as bonding potential in comparison with [18F]THK-5151R [3]: about fourth times large Bmax/Kd value | Kd value in comparison with [18F]THK-5151R [3]: about one tenth small Kd value | accumulation rate of radioactivity in brain, 2 min. ([4]; 2 min. after intravenous administration, n = 4): 4.36 ± 0.19 % ID/g | accumulation rate of radioactivity in brain, 10 min. ([4]; 10 min. after intravenous administration, n = 4): 1.10 ± 0.19 % ID/g | accumulation rate of radioactivity in brain, 30 min. ([4]; 30 min. after intravenous administration, n = 4): 0.21 ± 0.03 % ID/g | accumulation rate of radioactivity in brain, 60 min. ([4]; 60 min. after intravenous administration, n = 4): 0.13 ± 0.03 % ID/g | accumulation rate of radioactivity in brain, 120 min. ([4]; 120 min. after intravenous administration, n = 4): 0.12 ± 0.02 % ID/g | 2 min./60 min. ratio ([4]; brain accumulation rate at 2 min. divided by that at 60 min.): 33 | accumulation rate value after the initial uptake, compared between probes ([4]; in comparison with [18F]THK-5151R): lower values | brain uptake shortly after administration ([4]; shortly after administration): about 4 % ID/g
